Test results: PubChem BioAssay AID328 (DTP/NCI, 2004)
“And” between values parts separate entries of the source, which are not always exact repeats. Equal values may be shown once. Toxic doses and inconclusive results are not listed. Rule for the calls: active = survival T/C of 150% or more; inactive = T/C below 125% in these data.

Test system: BDF1 mice, P388 leukemia ip, median survival T/C
Test: NCI In Vivo Anticancer Drug Screen. Data for tumor model P388 Leukemia (intraperitoneal) in B6D2F1 (BDF1) mice
Settings: endpoint: median survival time, higher = longer survival
Procedure, shortened: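 In tumour-bearing mice, survival after compound treatment is set against the vehicle group and given as a quotient.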

[1] = dose: 100.0 mg/kg/injection, schedule: Q01DX009 (ip), vehicle: saline with Tween-80
[2] = dose: 200.0 mg/kg/injection, schedule: Q01DX009 (ip), vehicle: saline with Tween-80
[3] = dose: 200.0 mg/kg/injection, schedule: Q04DX003 (ip), vehicle: saline with Tween-80
[4] = dose: 400.0 mg/kg/injection, schedule: Q04DX003 (ip), vehicle: saline with Tween-80
[5] = dose: 100.0 mg/kg/injection, schedule: Q04DX003 (ip), vehicle: Klucel (hydroxypropylcellulose) (HPC)
[6] = dose: 50.0 mg/kg/injection, schedule: Q01DX009 (ip), vehicle: saline with Tween-80
[7] = dose: 100.0 mg/kg/injection, schedule: Q04DX003 (ip), vehicle: saline with Tween-80
[8] = dose: 100.0 mg/kg/injection, schedule: Q01DX009 (ip), vehicle: Klucel (hydroxypropylcellulose) (HPC)
[9] = dose: 200.0 mg/kg/injection, schedule: Q04DX003 (ip), vehicle: Klucel (hydroxypropylcellulose) (HPC)
[10] = dose: 25.0 mg/kg/injection, schedule: Q01DX009 (ip), vehicle: saline with Tween-80

Measured: T/C

O=C(N=c1cc(-c2ccc(Cl)cc2)ss1)C(Cc1ccccc1)N1C(=O)c2ccccc2C1=O (stereo not drawn)
inactive: dose: 6.25 mg/kg/injection, schedule: Q01DX009 (ip), vehicle: water 101 % of control | dose: 6.25 mg/kg/injection, schedule: Q04DX003 (ip), vehicle: water 110 % of control | dose: 12.5 mg/kg/injection, schedule: Q01DX009 (ip), vehicle: water 104 % of control | dose: 12.5 mg/kg/injection, schedule: Q04DX003 (ip), vehicle: water 100 % of control | dose: 25.0 mg/kg/injection, schedule: Q01DX009 (ip), vehicle: water 108 % of control | dose: 25.0 mg/kg/injection, schedule: Q04DX003 (ip), vehicle: water 110 % of control | dose: 50.0 mg/kg/injection, schedule: Q01DX009 (ip), vehicle: water 104 % of control | dose: 50.0 mg/kg/injection, schedule: Q04DX003 (ip), vehicle: water 104 % of control | dose: 100.0 mg/kg/injection, schedule: Q01DX009 (ip), vehicle: water 108 % of control | dose: 100.0 mg/kg/injection, schedule: Q04DX003 (ip), vehicle: water 107 % of control | dose: 200.0 mg/kg/injection, schedule: Q01DX009 (ip), vehicle: water 108 % of control

Clc1ccc2c(c1)C(Br)c1cc(Cl)cc(Cl)c1-2 (stereo not drawn)
inactive: [1] 108 % of control | [2] 87 % of control | [3] 87 % of control | [4] 87 % of control

Cc1nc(NN)c(C(N)=O)nc1C
inactive: dose: 12.5 mg/kg/injection, schedule: Q01DX009 (ip), vehicle: saline 97 % of control | dose: 25.0 mg/kg/injection, schedule: Q01DX009 (ip), vehicle: saline 89 % of control | dose: 25.0 mg/kg/injection, schedule: Q04DX003 (ip), vehicle: saline 106 % of control | dose: 50.0 mg/kg/injection, schedule: Q01DX009 (ip), vehicle: saline 93 % of control and 120 % of control | dose: 50.0 mg/kg/injection, schedule: Q04DX003 (ip), vehicle: saline 102 % of control

O=[N+]([O-])c1cccc2c([N+](=O)[O-])cccc12
inactive: dose: 100.0 mg/kg/injection, schedule: Q01DX001 (ip), vehicle: saline sonified 95 % of control | dose: 200.0 mg/kg/injection, schedule: Q01DX001 (ip), vehicle: saline sonified 100 % of control | dose: 400.0 mg/kg/injection, schedule: Q01DX001 (ip), vehicle: saline sonified 115 % of control

Nc1ccccc1SC1CC(=O)N(c2ccc(I)cc2)C1=O (stereo not drawn)
inactive: dose: 12.5 mg/kg/injection, schedule: Q04DX003 (ip), vehicle: Klucel (hydroxypropylcellulose) (HPC) 95 % of control | dose: 25.0 mg/kg/injection, schedule: Q01DX001 (ip), vehicle: Klucel (hydroxypropylcellulose) (HPC) 108 % of control | dose: 25.0 mg/kg/injection, schedule: Q04DX003 (ip), vehicle: Klucel (hydroxypropylcellulose) (HPC) 95 % of control | dose: 50.0 mg/kg/injection, schedule: Q01DX001 (ip), vehicle: Klucel (hydroxypropylcellulose) (HPC) 104 % of control | dose: 50.0 mg/kg/injection, schedule: Q04DX003 (ip), vehicle: Klucel (hydroxypropylcellulose) (HPC) 100 % of control | dose: 100.0 mg/kg/injection, schedule: Q01DX001 (ip), vehicle: Klucel (hydroxypropylcellulose) (HPC) 108 % of control | [5] 112 % of control

Nc1nc(N)c2cc(S(=O)(=O)c3ccccc3)ccc2n1
inactive: [6] 92 % of control

Cc1n(CC(C)C)c2c([n+]1CC(=O)c1ccc([N+](=O)[O-])cc1)C(=O)c1ccccc1C2=O
inactive: dose: 1.25 mg/kg/injection, schedule: Q01DX010 (ip), vehicle: saline 118 % of control | dose: 2.5 mg/kg/injection, schedule: Q01DX010 (ip), vehicle: saline 122 % of control | dose: 5.0 mg/kg/injection, schedule: Q01DX010 (ip), vehicle: saline 104 % of control

O=C(O)CCS(=O)(=O)CCC(=O)O
inactive: [6] 100 % of control | [1] 100 % of control | [2] 100 % of control

Cc1cc2nc3c(=O)[nH]c(=O)nc-3n(CC(O)C(O)C(O)C(O)CO)c2cc1C (stereo not drawn)
inactive: dose: 25.0 mg/kg/injection, schedule: Q01DX010 (ip), vehicle: saline 109 % of control | dose: 50.0 mg/kg/injection, schedule: Q01DX010 (ip), vehicle: saline 95 % of control and 100 % of control | dose: 100.0 mg/kg/injection, schedule: Q01DX010 (ip), vehicle: saline 90 % of control and 95 % of control and 104 % of control | dose: 200.0 mg/kg/injection, schedule: Q01DX010 (ip), vehicle: saline 100 % of control and 114 % of control | dose: 400.0 mg/kg/injection, schedule: Q01DX010 (ip), vehicle: saline 104 % of control and 110 % of control and 114 % of control

CCN(CC)CCCCCCNc1cc(OC)c(OC)c2c(C)ccnc12
inactive: dose: 3.13 mg/kg/injection, schedule: Q01DX009 (ip), vehicle: saline 102 % of control | dose: 6.25 mg/kg/injection, schedule: Q01DX009 (ip), vehicle: saline 109 % of control

O=c1ccc2cc(-c3c(Oc4cc5ccc(O)cc5oc4=O)ccc4ccc(=O)oc34)c(O)cc2o1
inactive: dose: 3.0 mg/kg/injection, schedule: Q01DX009 (ip), vehicle: saline 96 % of control | dose: 6.0 mg/kg/injection, schedule: Q01DX009 (ip), vehicle: saline 111 % of control | dose: 12.0 mg/kg/injection, schedule: Q01DX009 (ip), vehicle: saline 105 % of control

CCOCCO
inactive: dose: 5.0 mg/kg/injection, schedule: Q01DX009 (ip), vehicle: saline 103 % of control | dose: 5.0 mg/kg/injection, schedule: Q04DX003 (ip), vehicle: saline 92 % of control | dose: 10.0 mg/kg/injection, schedule: Q01DX009 (ip), vehicle: saline 88 % of control | dose: 10.0 mg/kg/injection, schedule: Q04DX003 (ip), vehicle: saline 92 % of control | dose: 20.0 mg/kg/injection, schedule: Q04DX003 (ip), vehicle: saline 88 % of control

CCNC(C)(C)C(SSS)c1cccs1 (stereo not drawn)
inactive: [1] 112 % of control | [7] 100 % of control | [2] 120 % of control | [3] 122 % of control | [4] 118 % of control

Cc1cc(=O)[nH]c(N/N=C2/CCCCC2C)n1 (stereo not drawn)
inactive: dose: 8.0 mg/kg/injection, schedule: Q01DX009 (ip), vehicle: Klucel (hydroxypropylcellulose) (HPC) 107 % of control | dose: 16.0 mg/kg/injection, schedule: Q01DX009 (ip), vehicle: Klucel (hydroxypropylcellulose) (HPC) 107 % of control | dose: 33.0 mg/kg/injection, schedule: Q01DX009 (ip), vehicle: Klucel (hydroxypropylcellulose) (HPC) 100 % of control | [8] 100 % of control | [5] 109 % of control | [9] 95 % of control

N=C(N=C(N)N)N1CCOCC1
inactive: dose: 50.0 mg/kg/injection, schedule: Q04DX003 (ip), vehicle: saline with Tween-80 110 % of control | [7] 115 % of control | [3] 105 % of control

O=C1/C(=C/c2ccc(Cl)cc2Cl)CCC/C1=C\c1ccc(Cl)cc1Cl
inactive: [10] 88 % of control | [6] 100 % of control | [1] 88 % of control

CC(=O)O[C@]1(C(C)=O)CC[C@H]2[C@@H]3C=C(Cl)C4=CC(=O)[C@@H]5C[C@@H]5[C@]4(C)[C@H]3CC[C@@]21C
inactive: [8] 95 % of control | [5] 104 % of control | dose: 200.0 mg/kg/injection, schedule: Q01DX009 (ip), vehicle: Klucel (hydroxypropylcellulose) (HPC) 91 % of control | [9] 108 % of control | dose: 400.0 mg/kg/injection, schedule: Q04DX003 (ip), vehicle: Klucel (hydroxypropylcellulose) (HPC) 108 % of control

COC(=O)c1c2ccccc2cn1Cc1ccccc1
inactive: [10] 89 % of control | [6] 90 % of control and 93 % of control | [1] 100 % of control | [2] 100 % of control
